Test results: patent EP1996603B1, “LIPID A ANTAGONISTS WITH ANTI-SEPTIC SHOCK, ANTI-INFLAMMATORY, ANTI-ISCHEMIA AND ANALGESIC ACTIVITY” (Università Degli Studi Di Milano - Bicocca, priority 2006, dated 2007)

Target: T1, TLR9 (Homo sapiens, UniProt Q9NR96)
T1 construct: host or cells: HEK-293 (HEK-293-hTLR9A)
T1 sequence (Q9NR96 26-1032): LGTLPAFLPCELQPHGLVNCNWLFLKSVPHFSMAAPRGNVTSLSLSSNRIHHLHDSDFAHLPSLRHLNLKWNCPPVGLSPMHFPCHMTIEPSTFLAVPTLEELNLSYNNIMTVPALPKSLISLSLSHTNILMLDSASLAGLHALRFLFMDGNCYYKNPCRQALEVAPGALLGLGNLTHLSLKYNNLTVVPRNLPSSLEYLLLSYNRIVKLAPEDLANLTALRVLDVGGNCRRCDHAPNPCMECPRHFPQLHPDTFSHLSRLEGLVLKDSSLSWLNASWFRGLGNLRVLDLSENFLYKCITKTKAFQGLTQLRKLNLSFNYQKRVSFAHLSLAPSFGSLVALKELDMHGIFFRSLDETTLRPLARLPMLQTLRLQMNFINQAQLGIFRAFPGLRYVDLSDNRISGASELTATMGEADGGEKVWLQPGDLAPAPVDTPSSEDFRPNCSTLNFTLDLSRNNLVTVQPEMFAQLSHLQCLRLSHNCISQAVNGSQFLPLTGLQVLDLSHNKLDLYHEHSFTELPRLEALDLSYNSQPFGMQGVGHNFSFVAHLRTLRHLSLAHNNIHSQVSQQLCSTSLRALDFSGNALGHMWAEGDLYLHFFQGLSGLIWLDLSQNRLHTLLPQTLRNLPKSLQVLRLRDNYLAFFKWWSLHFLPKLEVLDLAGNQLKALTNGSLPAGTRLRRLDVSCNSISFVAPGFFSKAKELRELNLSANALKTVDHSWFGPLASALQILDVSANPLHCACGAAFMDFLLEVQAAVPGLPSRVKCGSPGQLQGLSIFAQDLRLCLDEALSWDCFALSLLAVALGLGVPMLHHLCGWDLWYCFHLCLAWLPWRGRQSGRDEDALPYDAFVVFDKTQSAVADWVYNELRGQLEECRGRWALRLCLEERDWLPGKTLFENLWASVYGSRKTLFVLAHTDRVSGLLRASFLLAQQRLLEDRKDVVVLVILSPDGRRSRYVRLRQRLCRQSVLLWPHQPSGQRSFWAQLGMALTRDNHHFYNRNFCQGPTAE
Assay: NF-kB activation in HEK-293 cells transfected with TLR9, stimulated with CpG
Type: cell-based
Conditions: TLR9-transfected HEK 293; CpG (0.5 µM); maximal dose of 50 µM; measured 2 h later
Protocol: • Figure 1. Antagonistic activity of compounds Ia, Ic and Id on lipid A-stimulated cytokine production in BMDC, BMØ and D1 cells. TNFα production was measured in the supernatants 24 h later. From the right: lipid A (0.5µM), cells treated with lipid A alone; DMSO: cells incubated in the presence of complete medium plus DMSO; inhibitor 50 µM, cells treated only with monosaccharides Ia, Ic and Id; other columns, lipid A + compounds […] at increasing doses. The data represent means and standard deviations of triplicate wells. This is a representative of three independent experiments. *, p < 0.05; **, p < 0.01; ***, p< 0.001. • Figure 2. TLR-4 selectivity of monosaccharide Id. […] IL-1β was measured in the supernatants by ELISA. […] Lower panels, TNFα production measured by ELISA 24 h after stimulation with CpG (selective for TLR-9) or PAM3Cys-SK4 (selective for TLR-2) in the presence of compound Id. […] The cells were then analyzed by FACS for the presence of annexin V and propidium iodide (PI) double positive cells. […] NF-kB activation was evaluated in the nuclear extract 2 h later and expressed as optical density (OD) at 450 nm. […] Effect of different doses of compound Id on carrageenan induced edema in mice measured 4h after the exposure and expressed as difference between the paw volume of treated paw versus the contralateral paw. […]

For CCCCCCCCCCCCCCO[C@H]1[C@@H](OC)O[C@H](C[N+](C)(C)C2CCCC2)[C@@H](O)[C@@H]1OCCCCCCCCCCCCCC [Compound Id, methyl 6-deoxy-6-N,N',N"-dimethylcyclopentylammonium-2,3-di-O-tetradecyl-α-D-glucopyranoside], the NF-kB activation was “inactive”.
